Laboratory results taken from US8124647B2 (priority 2002, dated 2012).

Tests used:
[1] = target: T1, human androgen receptor (Homo sapiens, UniProt P10275); assay: androgenic activity (EC50 and intrinsic activity), transactivation bioassay in CHO-AR-pMMTV-LUC cells (Table 4); type: cell-based
T1 construct: expressed in transfected cells; host or cells: CHO cells, cell line CHO-AR-pMMTV-LUC 1G12-A5-CA
T1 sequence (P10275 1-920): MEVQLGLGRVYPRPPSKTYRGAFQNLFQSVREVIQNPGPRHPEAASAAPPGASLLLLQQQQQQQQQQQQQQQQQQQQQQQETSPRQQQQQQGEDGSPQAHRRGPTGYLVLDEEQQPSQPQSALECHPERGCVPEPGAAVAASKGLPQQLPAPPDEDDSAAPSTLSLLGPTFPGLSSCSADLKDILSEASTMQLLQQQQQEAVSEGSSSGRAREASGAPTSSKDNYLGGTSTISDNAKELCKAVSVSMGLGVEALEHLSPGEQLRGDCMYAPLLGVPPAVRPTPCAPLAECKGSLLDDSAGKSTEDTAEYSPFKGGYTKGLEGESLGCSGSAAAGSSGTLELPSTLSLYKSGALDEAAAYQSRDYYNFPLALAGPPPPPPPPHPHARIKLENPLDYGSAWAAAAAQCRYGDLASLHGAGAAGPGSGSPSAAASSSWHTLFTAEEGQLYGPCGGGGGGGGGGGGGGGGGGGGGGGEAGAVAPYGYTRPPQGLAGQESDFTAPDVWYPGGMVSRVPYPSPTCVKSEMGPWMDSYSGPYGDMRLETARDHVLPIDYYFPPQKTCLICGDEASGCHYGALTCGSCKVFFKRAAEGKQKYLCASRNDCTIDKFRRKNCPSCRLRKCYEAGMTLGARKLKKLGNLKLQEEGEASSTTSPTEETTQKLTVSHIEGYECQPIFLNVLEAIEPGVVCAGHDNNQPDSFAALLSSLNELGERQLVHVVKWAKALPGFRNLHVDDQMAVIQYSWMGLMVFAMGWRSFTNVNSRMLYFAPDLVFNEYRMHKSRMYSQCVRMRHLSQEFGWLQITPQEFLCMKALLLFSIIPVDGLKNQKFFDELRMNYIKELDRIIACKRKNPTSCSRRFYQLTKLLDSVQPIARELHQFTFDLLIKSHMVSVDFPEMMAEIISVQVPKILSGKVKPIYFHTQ
Description: (§1) Compounds were tested for their Androgen Receptor activity in a transactivation assay and in a binding assay.
(§2) The (anti-)androgenic activity of test compounds (EC50 and intrinsic activity) was determined in an in vitro bioassay of Chinese hamster ovary (CHO) cells stably transfected with the human androgen receptor expression plasmid and a reporter plasmid in which the MMTV-promoter is linked to the luciferase reporter gene. The cell-line CHO-AR-pMMTV-LUC 1G12-A5-CA is described in Schoonen et al. (2000), Journal of Steroid Biochemistry and Molecular Biology 74(4):213-222. The antiandrogenic activity of a test compound was determined by the inhibition of the transactivation via the androgen receptor of the enzyme luciferase in the presence of 1 nM DHT (5α-dihydrotestosterone, 17β-hydroxy-5α-androstan-3-one). Intrinsic activity of antiandrogenic activity was determined in the presence of the reference antiandrogen 2-Hydroxy-2-methyl-N-(4-nitro-3-trifluoromethyl-phenyl)-propionamide(Hydroxyflutamide), and set at 100%. For androgenic activity, maximal intrinsic activity in the presence of 100 nM DHT was set at 100%.

[2] = target: T1, human androgen receptor; assay: cell-based; settings: in the presence of 1 nM DHT
Description: as §1, §2

[3] = androgenic activity, read-out: ago EC50
[4] = antiandrogenic activity, read-out: ant EC50

`COc1ccc2c(Sc3ccccc3[N+](=O)[O-])cn(Cc3cc(F)ccc3F)c2c1` [Compound 1] was tested, and the EC50 [1, 3] was 5 to 100 nM and the EC50 [2, 4] was over 10000 nM.

In the case of `COc1ccc2c(Sc3ccccc3[N+](=O)[O-])cn(Cc3cccc(C)c3F)c2c1` [Compound 2], the EC50 [1, 3] is reported as under 1000 nM and the EC50 [2, 4] is reported as over 10000 nM.

For `COc1ccc2c(Sc3ccccc3[N+](=O)[O-])cn(Cc3ccccc3Cl)c2c1` [Compound 3], the EC50 [1, 3] was under 1000 nM and the EC50 [2, 4] was over 10000 nM.

With `COc1ccc2c(Sc3ccccc3[N+](=O)[O-])cn(Cc3ccccc3C#N)c2c1` [Compound 4] the EC50 [1, 3] was under 1000 nM and the EC50 [2, 4] was 5 to 100 nM.

`COc1ccc2c(Sc3ccccc3[N+](=O)[O-])cn(Cc3ccccc3F)c2c1` [Compound 5] was tested, and the EC50 [1, 3] was under 1000 nM and the EC50 [2, 4] was over 10000 nM.

In the case of `COc1ccc2c(Sc3ccccc3[N+](=O)[O-])cn(Cc3cccc([N+](=O)[O-])c3C)c2c1` [Compound 6], the EC50 ([1]; ago EC50, androgenic activity) is reported as under 1000 nM and the EC50 [2, 4] is reported as over 10000 nM.

Compound `COc1ccc2c(Sc3ccccc3[N+](=O)[O-])cn(Cc3ccccc3C)c2c1` [Compound 7] has an EC50 [1, 3] of 5 to 100 nM and an EC50 [2, 4] of over 10000 nM.

`COc1ccc2c(Sc3ccccc3[N+](=O)[O-])cn(Cc3ccccc3[N+](=O)[O-])c2c1` [Compound 8] showed an EC50 ([1]; ago EC50, androgenic activity) of 5 to 100 nM and an EC50 ([2]; ant EC50, antiandrogenic activity) of over 10000 nM.

`COc1ccc2c(Sc3ccccc3[N+](=O)[O-])cn(Cc3ccccn3)c2c1` [Compound 9, 6-Methoxy-3-(2-nitro-phenylsulfanyl)-1-pyridin-2-ylmethyl-1H-indole] showed an EC50 [1, 3] of under 5 nM and an EC50 [2, 4] of under 5 nM.

In the case of `COc1ccc2c(Sc3ccccc3[N+](=O)[O-])cn(Cc3ccccn3)c2c1.Cl` [Compound 10, 6-Methoxy-3-(2-nitro-phenylsulfanyl)-1-pyridin-2-ylmethyl-1H-indole monohydrochloride], the EC50 [1, 3] is reported as 5 to 100 nM, the EC50 [2, 4] is reported as over 10000 nM and the ant efficacy ([2]; reference antiandrogen Hydroxyflutamide set at 100%) is reported as “− (− <0.20)”.

Compound `COc1ccc2c(Sc3ccccc3[N+](=O)[O-])cn(CC3CCCCO3)c2c1` (stereo not drawn) [Compound 11] has an EC50 [1, 3] of 5 to 100 nM and an EC50 [2, 4] of over 10000 nM.

In the case of `COc1ccc2c(Sc3ccccc3[N+](=O)[O-])cn(Cc3ccccc3C(F)(F)F)c2c1` [Compound 12], the EC50 [1, 3] is reported as under 1000 nM and the EC50 [2, 4] is reported as over 10000 nM.

With `COc1ccc2c(Sc3ccccc3[N+](=O)[O-])cn(Cc3cc(C)on3)c2c1` [Compound 13] the EC50 [1, 3] was under 1000 nM and the EC50 [2, 4] was over 10000 nM.

`COc1ccc2c(Sc3ccccc3[N+](=O)[O-])cn(Cc3ccc(Cl)c(Cl)c3)c2c1` [Compound 14] gave an EC50 [1, 3] of under 1000 nM and an EC50 [2, 4] of over 10000 nM.

`COc1ccc2c(Sc3ccccc3[N+](=O)[O-])cn(Cc3cc(Cl)cc(Cl)c3)c2c1` [Compound 15] was tested, and the EC50 [1, 3] was 5 to 100 nM and the EC50 [2, 4] was over 10000 nM.

Work on `COc1ccc2c(Sc3ccccc3CO)cn(Cc3cc(F)cc(F)c3)c2c1` [Compound 16, {2-[1-(3,5-Difluoro-benzyl)-6-methoxy-1H-indol-3-ylsulfanyl]-phenyl}-methanol] yielded an EC50 [1, 3] of 5 to 100 nM and an EC50 [2, 4] of 5 to 100 nM.

`CNC(=O)c1ccccc1Sc1cn(Cc2cc(F)cc(F)c2)c2cc(OC)ccc12` [Compound 17, 2-[1-(3,5-Difluoro-benzyl)-6-methoxy-1H-indol-3-ylsulfanyl]-N-methyl-benzamide] gave an EC50 [1, 3] of over 10000 nM and an EC50 [2, 4] of under 1000 nM.

`COc1ccc2c(Sc3ccccc3C(N)=O)cn(Cc3cc(F)cc(F)c3)c2c1` [Compound 18, 2-[1-(3,5-Difluoro-benzyl)-6-methoxy-1H-indol-3-ylsulfanyl]-benzamide] was tested, and the EC50 [1, 3] was 5 to 100 nM and the EC50 [2, 4] was 5 to 100 nM.

`COC(=O)c1ccccc1Sc1cn(Cc2cc(F)cc(F)c2)c2cc(OC)ccc12` [Compound 19, 2-[1-(3,5-Difluoro-benzyl)-6-methoxy-1H-indol-3-ylsulfanyl]-benzoic acid methyl ester] was tested, and the EC50 [1, 3] was under 1000 nM and the EC50 [2, 4] was over 10000 nM.

`COc1ccc2c(Sc3ccccc3C#N)cn(Cc3cc(F)cc(F)c3)c2c1` [Compound 20, 2-[1-(3,5-Difluoro-benzyl)-6-methoxy-1H-indol-3-ylsulfanyl]-benzonitrile] was tested, and the EC50 [1, 3] was 5 to 100 nM and the EC50 [2, 4] was over 10000 nM.

`O=[N+]([O-])c1ccccc1Sc1cn(Cc2cc(F)cc(F)c2)c2cc(Br)ccc12` [Compound 22] was tested, and the EC50 [1, 3] was 5 to 100 nM and the EC50 [2, 4] was over 10000 nM.

Compound `O=[N+]([O-])c1ccccc1Sc1cn(Cc2cc(F)cc(F)c2)c2cc(C(F)(F)F)ccc12` [Compound 23] has an EC50 [1, 3] of under 5 nM and an EC50 [2, 4] of over 10000 nM.

`O=[N+]([O-])c1ccccc1Sc1cn(Cc2cc(F)cc(F)c2)c2cc(CO)ccc12` [Compound 24] showed an EC50 [1, 3] of 5 to 100 nM and an EC50 [2, 4] of over 10000 nM.

Work on `O=[N+]([O-])c1ccccc1Sc1cn(Cc2cc(F)cc(F)c2)c2cc(Cl)ccc12` [Compound 25] yielded an EC50 [1, 3] of under 5 nM and an EC50 [2, 4] of over 10000 nM.

`N#Cc1ccc2c(Sc3ccccc3[N+](=O)[O-])cn(Cc3cc(F)cc(F)c3)c2c1` [Compound 26, 1-(3,5-Difluoro-benzyl)-3-(2-nitro-phenylsulfanyl)-1H-indole-6-carbonitrile] showed an EC50 [1, 3] of under 5 nM and an EC50 [2, 4] of over 10000 nM.

`O=C(c1ccc2c(Sc3ccccc3[N+](=O)[O-])cn(Cc3cc(F)cc(F)c3)c2c1)N1CCCC1` [Compound 27] gave an EC50 [1, 3] of 5 to 100 nM and an EC50 [2, 4] of over 10000 nM.

With `O=C(c1ccc2c(Sc3ccccc3[N+](=O)[O-])cn(Cc3cc(F)cc(F)c3)c2c1)N1CCOCC1` [Compound 28] the EC50 [1, 3] was 5 to 100 nM and the EC50 [2, 4] was over 10000 nM.

Compound `CN1CCN(C(=O)c2ccc3c(Sc4ccccc4[N+](=O)[O-])cn(Cc4cc(F)cc(F)c4)c3c2)CC1` [Compound 29] has an EC50 [1, 3] of 5 to 100 nM and an EC50 [2, 4] of over 10000 nM.

`O=C(O)c1ccc2c(Sc3ccccc3[N+](=O)[O-])cn(Cc3cc(F)cc(F)c3)c2c1` [Compound 30, 1-(3,5-Difluoro-benzyl)-3-(2-nitro-phenylsulfanyl)-1H-indole-6-carboxylic acid] showed an EC50 [1, 3] of under 1000 nM and an EC50 [2, 4] of over 10000 nM.

`COC(=O)c1ccc2c(Sc3ccccc3[N+](=O)[O-])cn(Cc3cc(F)cc(F)c3)c2c1` [Compound 31, 1-(3,5-Difluoro-benzyl)-3-(2-nitro-phenylsulfanyl)-1H-indole-6-carboxylic acid methyl ester] showed an EC50 [1, 3] of under 5 nM and an EC50 [2, 4] of over 10000 nM.

`CCN(CC)C(=O)c1ccc2c(Sc3ccccc3[N+](=O)[O-])cn(Cc3cc(F)cc(F)c3)c2c1` [Compound 32] showed an EC50 [1, 3] of 5 to 100 nM and an EC50 [2, 4] of under 1000 nM.

`NC(=O)c1ccc2c(Sc3ccccc3[N+](=O)[O-])cn(Cc3cc(F)cc(F)c3)c2c1` [Compound 33, 1-(3,5-Difluoro-benzyl)-3(2-nitro-phenylsulfanyl)-1H-indole-6-carboxylic acid amide] was tested, and the EC50 [1, 3] was under 5 nM and the EC50 [2, 4] was over 10000 nM.

With `O=C(NCc1ccco1)c1ccc2c(Sc3ccccc3[N+](=O)[O-])cn(Cc3cc(F)cc(F)c3)c2c1` [Compound 34] the EC50 [1, 3] was 5 to 100 nM and the EC50 [2, 4] was over 10000 nM.

`O=C(NCc1cccnc1)c1ccc2c(Sc3ccccc3[N+](=O)[O-])cn(Cc3cc(F)cc(F)c3)c2c1` [Compound 35] showed an EC50 [1, 3] of 5 to 100 nM and an EC50 [2, 4] of over 10000 nM.

In the case of `CN(C)CCNC(=O)c1ccc2c(Sc3ccccc3[N+](=O)[O-])cn(Cc3cc(F)cc(F)c3)c2c1` [Compound 36], the EC50 [1, 3] is reported as 5 to 100 nM and the EC50 [2, 4] is reported as over 10000 nM.

Work on `O=C(NCCO)c1ccc2c(Sc3ccccc3[N+](=O)[O-])cn(Cc3cc(F)cc(F)c3)c2c1` [Compound 37] yielded an EC50 [1, 3] of under 5 nM and an EC50 [2, 4] of over 10000 nM.

`COCCNC(=O)c1ccc2c(Sc3ccccc3[N+](=O)[O-])cn(Cc3cc(F)cc(F)c3)c2c1` [Compound 38] gave an EC50 [1, 3] of under 5 nM and an EC50 [2, 4] of over 10000 nM.

With `COC(=O)CNC(=O)c1ccc2c(Sc3ccccc3[N+](=O)[O-])cn(Cc3cc(F)cc(F)c3)c2c1` [Compound 39] the EC50 [1, 3] was 5 to 100 nM and the EC50 [2, 4] was over 10000 nM.

In the case of `CN(C)C(=O)CNC(=O)c1ccc2c(Sc3ccccc3[N+](=O)[O-])cn(Cc3cc(F)cc(F)c3)c2c1` [Compound 40], the EC50 [1, 3] is reported as 5 to 100 nM and the EC50 [2, 4] is reported as over 10000 nM.

`O=[N+]([O-])c1ccccc1Sc1cn(Cc2cc(F)cc(F)c2)c2ccc(O)cc12` [Compound 56] was tested, and the EC50 [1, 3] was under 5 nM.

In the case of `O=[N+]([O-])c1ccccc1Sc1cn(Cc2cc(F)cc(F)c2)c2cc(O)ccc12` [Compound 61, 1-(3,5-Difluoro-benzyl)-3-(2-nitro-phenylsulfanyl)-1H-indol-6-ol], the EC50 [1, 3] is reported as under 5 nM.
